Assay results published in patent US20170051149A1, “AZOARYLS AS REVERSIBLY MODULATABLE TUBULIN INHIBITORS” (ECOLE NORMALE SUPERIEURE DE LYON, priority 2014, published 2017).

Test system: HeLa cells
Test: cytotoxicity by crystal violet staining
Format: cell-based
Details: 40 h
Experimental: Seven of the compounds according to the invention were selected for biological tests. Their cytotoxicity was assessed using crystal violet staining as adapted from standard procedure^[31]. Briefly, HeLa cells were seeded on 96-well plates, treated with the given concentrations of the selected compound, and exposed or not to the pulse protocol of illumination with light at 390 nm (pulses of 75 ms every 15 s). After 40 h cells were stained with crystal violet solution (0.5% crystal violet in 20% methanol) for 10 min. Unbound crystal violet was removed by rinsing with distilled water and cells were air-dried. Crystal violet was subsequently eluted from cells with 0.1 M sodium citrate in 50% ethanol. The absorbance of crystal violet is proportional to the cell number and was determined at 590 nm with a FLUOstar Omega microplate reader (BMG Labtech).
Each compound was tested at 6 doses: 100 nM, 500 nM, 1 μM, 2 μM, 5 μM and 10 μM. In order to ensure their solubility in the cell culture media, DMSO was used as a co-solvent, and to provide comparability between all samples the volume of DMSO was adjusted to obtain its final concentration as 1% in the cell culture media for all the compounds at all concentrations tested.
Results presented in Table 4 below are expressed as a fold growth relative to the control growth of the cells treated only with a co-solvent (1% DMSO), and are represented as a mean value from triplicates coming from a representative experiment.

SMILES: COc1ccc(N=Nc2cc(OC)c(OC)c(OC)c2)cc1O [I.1, 2-methoxy-5-((3,4,5-trimethoxyphenyl)diazenyl)phenol]
- mean fold growth (100 nM, 390 nm (75 ms every 15 s)): 0.95 fold
- mean fold growth (100 nM, Dark): 0.95 fold
- mean fold growth (500 nM, 390 nm (75 ms every 15 s)): 0.85 fold
- mean fold growth (500 nM, Dark): 0.89 fold
- mean fold growth (1 μM, 390 nm (75 ms every 15 s)): 0.43 fold
- mean fold growth (1 μM, Dark): 0.87 fold
- mean fold growth (2 μM, 390 nm (75 ms every 15 s)): 0.35 fold
- mean fold growth (2 μM, Dark): 0.89 fold
- mean fold growth (5 μM, 390 nm (75 ms every 15 s)): 0.27 fold
- mean fold growth (5 μM, Dark): 0.84 fold
- mean fold growth (10 μM, 390 nm (75 ms every 15 s)): 0.35 fold
- mean fold growth (10 μM, Dark): 0.75 fold
